Reference: patent publication US20050222408A1, “Heterocyclic amides with anti-tuberculosis activity” (priority 2003, published 2005)
≈ marks a conversion by molar mass, not a printed value.

These molecules were tested on M. tuberculosis H37Ra (assay: MIC against M. tuberculosis H37Ra, micro broth dilution in microtiter plates). Conditions: M. tuberculosis H37Ra.
In the case of `O=C(c1ccc([N+](=O)[O-])o1)N1CCC(Cc2ccccc2)CC1` [Compound 72], the “anti-tuberculosis MIC activity” value is reported as “good activity”.
With `O=C(NCc1cccc(N2CCC(Cc3ccccc3)CC2)c1)c1ccc([N+](=O)[O-])o1` [Compound 70, 5-Nitro-furan-2-carboxylic acid 3-(4-benzyl-piperidin-1-yl)-benzylamide] the “anti-tuberculosis MIC activity” value was “extremely potent”.
`O=C(c1ccc([N+](=O)[O-])o1)N1CCN(Cc2ccccc2)CC1` [Compound 73] was tested, and the “anti-tuberculosis MIC activity” value was “good activity”.
With `COc1cc2c(cc1OC)CN(C(=O)c1ccc([N+](=O)[O-])o1)CC2` [Compound 75] the “anti-tuberculosis MIC activity” value was “very potent”.

Same assay, conditions: Mycobacterium tuberculosis, H37RA, 168 h, read-out: TB MIC, Table 1; M. tuberculosis H37Ra, 7 days at 37° C., MIC90
`O=C(Nc1cccc(OCc2ccccc2)c1)c1ccc([N+](=O)[O-])o1` [Compound 37, 5-Nitro-furan-2-carboxylic acid(3-benzyloxy-phenyl)-amide] gave an MIC of 12.5 µg/mL (≈ 36.9 µM).
In the case of `COc1cccc(NC(=O)c2ccc(Sc3ccccc3)o2)c1` [Compound 36, 5-Phenylsulfanyl-furan-2-carboxylic acid(3-methoxy-phenyl)-amide], the MIC is reported as 25 µg/mL (≈ 76.8 µM).
`COc1ccc(CCNC(=O)c2ccc([N+](=O)[O-])o2)cc1OC` [Compound 31, 5-Nitro-furan-2-carboxylic acid [2-(3,4-dimethoxy-phenyl)-ethyl]-amide] gave an MIC of 0.4 µg/mL (≈ 1.25 µM).

Same assay, conditions: Mycobacterium tuberculosis, H37RA, Table 6; M. tuberculosis H37Ra, MIC90
In the case of `O=C(c1ccc([N+](=O)[O-])o1)N1CCN(Cc2ccc(F)cc2)CC1` [Compound 90, [4-(4-Fluoro-benzyl)-piperazin-1-yl]-(5-nitro-furan-2-yl)-methanone], the MIC is reported as 0.4 µg/mL (≈ 1.2 µM).
In the case of `COc1ccc(CN2CCN(C(=O)c3ccc([N+](=O)[O-])o3)CC2)c(OC)c1` [Compound 89, [4-(2,4-Dimethoxy-benzyl)-piperazin-1-yl]-(5-nitro-furan-2-yl)-methanone], the MIC is reported as 0.2 µg/mL (≈ 0.533 µM).
With `COc1ccc(C(=O)N2CCN(C(=O)c3ccc([N+](=O)[O-])o3)CC2)cc1` [Compound 110, [4-(4-Methoxy-benzoyl)-piperazin-1-yl]-(5-nitro-furan-2-yl)-methanone] the MIC was 0.05 µg/mL (≈ 0.139 µM).
In the case of `O=C(c1ccc(F)cc1)N1CCN(C(=O)c2ccc([N+](=O)[O-])o2)CC1` [Compound 109, [4-(4-Fluoro-benzoyl)-piperazin-1-yl]-(5-nitro-furan-2-yl)-methanone], the MIC is reported as 0.05 µg/mL (≈ 0.144 µM).
`COc1ccc(N2CCN(C(=O)c3ccc([N+](=O)[O-])o3)CC2)cc1` [Compound 107, [4-(4-Methoxy-phenyl)-piperazin-1-yl]-(5-nitro-furan-2-yl)-methanone] showed an MIC of 0.05 µg/mL (≈ 0.151 µM).
With `COc1cccc(CN2CCN(C(=O)c3ccc([N+](=O)[O-])o3)CC2)c1` [Compound 86, [4-(3-Methoxy-benzyl)-piperazin-1-yl]-(5-nitro-furan-2-yl)-methanone] the MIC was 0.4 µg/mL (≈ 1.16 µM).
Work on `O=C(c1ccc([N+](=O)[O-])o1)N1CCN(c2ncccn2)CC1` [Compound 81, (5-Nitro-furan-2-yl)-(4-pyrimidin-2-yl-piperazin-1-yl)-methanone] yielded an MIC of 0.1 µg/mL (≈ 0.33 µM).
Molecule `CC(=O)c1ccc(N2CCN(C(=O)c3ccc([N+](=O)[O-])o3)CC2)cc1` [Compound 91, 1-{4-[4-(5-Nitro-furan-2-carbonyl)-piperazin-1-yl]-phenyl}-ethanone] has an MIC of 0.0031 µg/mL (≈ 0.00903 µM).
With `COc1ccc(CN2CCN(C(=O)c3ccc([N+](=O)[O-])o3)CC2)cc1` [Compound 85, [4-(4-Methoxy-benzyl)-piperazin-1-yl]-(5-nitro-furan-2-yl)-methanone] the MIC was 0.1 µg/mL (≈ 0.29 µM).
For `CN1CCN(/N=C/c2ccc(CNC(=O)c3ccc([N+](=O)[O-])o3)cc2)CC1` [Compound 111, 5-Nitro-furan-2-carboxylic acid 4-[(4-methyl-piperazin-1-ylimino)-methyl]-benzylamide], the MIC was 0.1 µg/mL (≈ 0.269 µM).
Work on `CCN(CC)c1ccc(CN2CCN(C(=O)c3ccc([N+](=O)[O-])o3)CC2)cc1` [Compound 88, [4-(4-Diethylamino-benzyl)-piperazin-1-yl]-(5-nitro-furan-2-yl)-methanone] yielded an MIC of 0.4 µg/mL (≈ 1.04 µM).
`O=C(c1ccc([N+](=O)[O-])o1)N1CCN(Cc2cccc(OCc3ccccc3)c2)CC1` [Compound 87, [4-(3-Benzyloxy-benzyl)-piperazin-1-yl]-(5-nitro-furan-2-yl)-methanone] gave an MIC of 0.4 µg/mL (≈ 0.949 µM).

Same assay, conditions: Table 1; M. tuberculosis H37Ra, 7 days at 37° C., MIC90
With `O=C(NCc1ccccn1)c1ccc([N+](=O)[O-])o1` [Compound 49, 5-nitro-furan-2-carboxylic acid(pyridin-2-ylmethyl)-amide] the “TB MIC” value was 0.8 µg/mL.
`COc1ccc(CNC(=O)c2ccc([N+](=O)[O-])o2)c(OC)c1` [Compound 22, 5-Nitro-furan-2-carboxylic acid 2,4-dimetboxy-benzylamide] was tested, and the “TB MIC” value was 0.4 µg/mL.
In the case of `N#Cc1ccc(NC(=O)c2ccc([N+](=O)[O-])o2)cc1` [Compound 19, 5-Nitro-furan-2-carboxylic acid(4-cyano-phenyl)-amide], the “TB MIC” value is reported as 0.8 µg/mL.
In the case of `O=C(Nc1cccnc1)c1ccc([N+](=O)[O-])o1` [Compound 45], the “TB MIC” value is reported as 6.25 µg/mL.
`COc1ccc(NC(=O)c2ccc([N+](=O)[O-])o2)cc1Cl` [Compound 1] was tested, and the “TB MIC” value was 1.6 µg/mL.
In the case of `O=C(NCc1ccco1)c1ccc([N+](=O)[O-])o1` [Compound 18, 5-Nitro-furan-2-carboxylic acid(furan-2-ylmethyl)-amide], the “TB MIC” value is reported as 6.25 µg/mL.
In the case of `O=C(Nc1ccncc1)c1ccc([N+](=O)[O-])o1` [Compound 46], the “TB MIC” value is reported as 3.12 µg/mL.
In the case of `COc1ccc(N(C)C(=O)c2ccc([N+](=O)[O-])o2)cc1` [Compound 42], the “TB MIC” value is reported as 6.25 µg/mL.
For `CN(C(=O)c1ccc([N+](=O)[O-])o1)c1ccccc1` [Compound 41], the “TB MIC” value was 3.12 µg/mL.
In the case of `COc1cccc2sc(NC(=O)c3ccc([N+](=O)[O-])o3)nc12` [Compound 50, 5-nitro-furan-2-carboxylic acid(4-methoxy-benzothiazol-2-yl)-amide], the “TB MIC” value is reported as 1.6 µg/mL.
`CC(NC(=O)c1ccc([N+](=O)[O-])o1)c1ccccc1` (stereo not drawn) [Compound 29, 5-Nitro-furan-2-carboxylic acid(1-phenyl-ethyl)-amide] was tested, and the “TB MIC” value was 1.6 µg/mL.
In the case of `O=C(c1ccc([N+](=O)[O-])o1)N1CCc2ccccc21` [Compound 43], the “TB MIC” value is reported as 0.8 µg/mL.
For `O=C(Nc1cccc(Br)c1)c1ccc([N+](=O)[O-])o1` [Compound 11, 5-Nitro-furan-2-carboxylic acid(3-bromo-phenyl)-amide], the “TB MIC” value was 1.6 µg/mL.
For `COc1cc(NC(=O)c2ccc([N+](=O)[O-])o2)ncn1` [Compound 51, 5-nitro-furan-2-carboxylic acid(6-methoxy-pyrimin-4-yl)-amide], the “TB MIC” value was 1.6 µg/mL.

Same assay, conditions: Table 5; M. tuberculosis H37Ra, MIC90
`O=C(NCc1ccc(N2CC[S+]([O-])CC2)cc1)c1ccc([N+](=O)[O-])o1` [Compound 93, 5-Nitro-furan-2-carboxylic acid 4-(1-oxo-¼-thiomorpholin-4-yl)-benzylamide] was tested, and the MIC was 0.8 µg/mL (≈ 2.2 µM).
With `O=C(NCc1ccc(N2CCS(=O)(=O)CC2)cc1)c1ccc([N+](=O)[O-])o1` [Compound 94, 5-Nitro-furan-2-carboxylic acid 4-(1,1-dioxo-⅙-thiomorpholin-4-yl)-benzylamide] the MIC was 6.25 µg/mL (≈ 16.5 µM).

Same assay, conditions: Table 6; M. tuberculosis H37Ra, MIC90
With `O=C(c1ccc([N+](=O)[O-])o1)N1CCN(c2ccc(F)cc2)CC1` [Compound 108, [4-(4-Fluoro-phenyl)-piperazin-1-yl]-(^5-nitro-furan-2-yl)-methanone] the MIC was 0.025 µg/mL (≈ 0.0783 µM).

Same assay, conditions: quoted
With `CN(C(=O)c1ccc([N+](=O)[O-])o1)c1ccccc1` [Compound 41] the MIC was 3.1 µg/mL (≈ 12.6 µM).

Each molecule was assayed on Vero cells (assay: Cytotoxicity, alamar blue assay against Vero cells). Conditions: Chlorocebus sabaeus, Vero, read-out: ToxIC50.
Assay type: cell-based
Work on `O=C(NCCc1ccccc1)c1ccc([N+](=O)[O-])o1` [Compound 27, 5-Nitro-furan-2-carboxylic acid phenethyl-amide] yielded an IC50 of 25.2 µg/mL (≈ 96.9 µM).
In the case of `COc1ccc(CCNC(=O)c2ccc([N+](=O)[O-])o2)cc1OC` [Compound 31, 5-Nitro-furan-2-carboxylic acid [2-(3,4-dimethoxy-phenyl)-ethyl]-amide], the IC50 is reported as 27.4 µg/mL (≈ 85.7 µM).

Same assay, conditions: Chlorocebus sabaeus; Table 1; Vero cells, alamar blue; unit inferred; read-out: ToxIC50
With `COc1cc(CNC(=O)c2ccc([N+](=O)[O-])o2)cc(OC)c1OC` [Compound 24, 5-Nitro-furan-2-carboxylic acid 3,4,5-trimethoxy-benzylamide] the IC50 was 23.6 µg/mL (≈ 70.1 µM).
With `O=C(Nc1ccccc1)c1ccc([N+](=O)[O-])o1` [Compound 17, 5-Nitro-furan-2-carboxylic acid phenylamide] the IC50 was 2.19 µg/mL (≈ 9.43 µM).
`COc1cccc(NC(=O)c2ccc([S+]([O-])c3ccccc3)o2)c1` (stereo not drawn) [Compound 38, 5-Benzenesulfinyl-furan-2-carboxylic acid(3-methoxy-phenyl)-amide] showed an IC50 of 65 µg/mL (≈ 190 µM).
In the case of `COc1ccc(CNC(=O)c2ccc([N+](=O)[O-])o2)cc1` [Compound 20, 5-Nitro-furan-2-carboxylic acid 4-methoxy-benzylamide], the IC50 is reported as 16.4 µg/mL (≈ 59.2 µM).
`O=C(NC12CC3CC(CC(C3)C1)C2)c1ccc([N+](=O)[O-])o1` [Compound 16, 5-Nitro-furan-2-carboxylic acid adamantan-1-ylamide] showed an IC50 of 9.43 µg/mL (≈ 32.5 µM).
`O=C(NC1CCCCC1)c1ccc([N+](=O)[O-])o1` [Compound 15, 5-Nitro-furan-2-carboxylic acid cyclohexylamide] showed an IC50 of 9.08 µg/mL (≈ 38.1 µM).
`O=C(Nc1cccc(O)c1)c1ccc([N+](=O)[O-])o1` [Compound 35, 5-Nitro-furan-2-carboxylic acid(3-hydroxy-phenyl)-amide] showed an IC50 of 12.5 µg/mL (≈ 50.4 µM).
`CCOC(=O)c1ccc(C(=O)Nc2cccc(OC)c2)o1` [Compound 40, 5-(3-Methoxy-phenylcarbamoyl)-furan-2-carboxylic acid ethyl ester] gave an IC50 of 200 µg/mL (≈ 691 µM).
`COc1ccc(CNC(=O)c2ccc(Br)o2)cc1` [Compound 32, 5-Bromo-furan-2-carboxylic acid 4-methoxy-benzylamide] showed an IC50 of 90.5 µg/mL (≈ 292 µM).
For `COc1cccc(NC(=O)c2ccc(S(=O)(=O)c3ccccc3)o2)c1` [Compound 39, 5-Benzenesulfonyl-furan-2-carboxylic acid(3-methoxy-phenyl)-amide], the IC50 was 25.9 µg/mL (≈ 72.3 µM).
`O=C(NCc1ccccc1Cl)c1ccc([N+](=O)[O-])o1` [Compound 21, 5-Nitro-furan-2-carboxylic acid 2-chloro-benzylamide] gave an IC50 of 11.8 µg/mL (≈ 41.9 µM).
`COc1cccc(NC(=O)c2ccc(Sc3ccccc3)o2)c1` [Compound 36, 5-Phenylsulfanyl-furan-2-carboxylic acid(3-methoxy-phenyl)-amide] gave an IC50 of 25.7 µg/mL (≈ 79 µM).
In the case of `O=C(NC1CCc2ccccc21)c1ccc([N+](=O)[O-])o1` (stereo not drawn) [Compound 26, 5-Nitro-furan-2-carboxylic acid indan-1-ylamide], the IC50 is reported as 10.3 µg/mL (≈ 37.8 µM).

Same assay, conditions: Table 1; Vero cells, alamar blue; unit not given
With `COc1ccc(CNC(=O)c2ccc([N+](=O)[O-])o2)c(OC)c1` [Compound 22, 5-Nitro-furan-2-carboxylic acid 2,4-dimetboxy-benzylamide] the ToxIC50 was 5.38.
Molecule `N#Cc1ccc(NC(=O)c2ccc([N+](=O)[O-])o2)cc1` [Compound 19, 5-Nitro-furan-2-carboxylic acid(4-cyano-phenyl)-amide] has a ToxIC50 of 3.53.
`O=C(NCc1ccco1)c1ccc([N+](=O)[O-])o1` [Compound 18, 5-Nitro-furan-2-carboxylic acid(furan-2-ylmethyl)-amide] was tested, and the ToxIC50 was 4.08.
`CC(NC(=O)c1ccc([N+](=O)[O-])o1)c1ccccc1` (stereo not drawn) [Compound 29, 5-Nitro-furan-2-carboxylic acid(1-phenyl-ethyl)-amide] was tested, and the ToxIC50 was 25.63.
In the case of `O=C(Nc1cccc(Br)c1)c1ccc([N+](=O)[O-])o1` [Compound 11, 5-Nitro-furan-2-carboxylic acid(3-bromo-phenyl)-amide], the ToxIC50 is reported as 15.37.
